Structures are written as SMILES.

Assay in the first series: not given
To be noted: product dissolved in water, observation.
`CCCCCCCCCCCCCCCCC[N+](C)(C)CCC[Si](OCCN(CCO)CC(O)CS(=O)(=O)[O-])(OCCN(CCO)CC(O)CS(=O)(=O)O)OCCN(CCO)CC(O)CS(=O)(=O)O` (stereo not shown) [Example 8, Disodium; 3-[2-[3-[heptadecyl(dimethyl)ammonio]propyl-[2-[2-hydroxyethyl-(2-hydroxy-3-sulfonato-propyl)amino]ethoxy]-[2-[2-hydroxyethyl-(2-hydroxy-3-sulfo-propyl)amino]ethoxy]silyl]oxyethyl-(2-hydroxyethyl)amino]-2-hydroxy-propane-1-sulfonate; chloride]: the stability in water entry is “forms a precipitate after 5 hours”.

Another series in a line: Dissolution of isolated product in water. The class given is physicochemical. To be noted: observation.
Turning to `CCCCCCCCCCCCCCCCC[N+](C)(C)CCC[Si](OCCN(CCO)CC(O)CS(=O)(=O)[O-])(OCCN(CCO)CC(O)CS(=O)(=O)O)OCCN(CCO)CC(O)CS(=O)(=O)O` (stereo not shown) [Example 8, Disodium; 3-[2-[3-[heptadecyl(dimethyl)ammonio]propyl-[2-[2-hydroxyethyl-(2-hydroxy-3-sulfonato-propyl)amino]ethoxy]-[2-[2-hydroxyethyl-(2-hydroxy-3-sulfo-propyl)amino]ethoxy]silyl]oxyethyl-(2-hydroxyethyl)amino]-2-hydroxy-propane-1-sulfonate; chloride], the dissolution in water result is listed as “dissolved in water”.

Turning to `CCCCCCCCCCCCCCCCCC[N+](C)(C)CCC[Si](OCC(CO)(CO)NCCS(=O)(=O)[O-])(OCC(CO)(CO)NCCS(=O)(=O)O)OCC(CO)(CO)NCCS(=O)(=O)O.[Cl-].[Na+]` [Example 21, Monosodium; 2-[[1-[[3-[dimethyl(octadecyl)ammonio]propyl-[3-hydroxy-2-(hydroxymethyl)-2-(2-sulfoethylamino)propoxy]-[3-hydroxy-2-(hydroxymethyl)-2-(2-sulfonatoethylamino)propoxy]silyl]oxymethyl]-2-hydroxy-1-(hydroxymethyl)ethyl]amino]ethanesulfonate chloride], the dissolution in water entry was “dissolves readily in water”.

Turning to `CCCCCCCCCCCCCCCCCC[N+](C)(C)CCC[Si](OCC(CO)(CO)NCC(O)CS(=O)(=O)[O-])(OCC(CO)(CO)NCC(O)CS(=O)(=O)O)OCC(CO)(CO)NCC(O)CS(=O)(=O)O` (stereo not shown) [Example 2, Disodium; 3-[[1-[[3-[dimethyl(octadecyl)ammonio]propyl-[3-hydroxy-2-(hydroxymethyl)-2-[(2-hydroxy-3-sulfonato-propyl)amino]propoxy]-[3-hydroxy-2-(hydroxymethyl)-2-[(2-hydroxy-3-sulfo-propyl)amino]propoxy]silyl]oxymethyl]-2-hydroxy-1-(hydroxymethyl)ethyl]amino]-2-hydroxy-propane-1-sulfonate; chloride], the dissolution in water result is given as “dissolves in water”.

As to `CCCCCCCCCCCCCCCCCC[N+](C)(C)CCC[Si](OCC(CO)(CO)NCC(=O)[O-])(OCC(CO)(CO)NCC(=O)[O-])OCC(CO)(CO)NCC(=O)O.[Cl-].[Na+].[Na+]` [Example 10, Disodium, 7-(2-((carboxymethyl)amino)-3-hydroxy-2-(hydroxymethyl)propoxy)-7-(3-(dimethyl(octadecyl)ammonio)propyl)-4,4,10,10-tetrakis(hydroxymethyl)-6,8-dioxa-3,11-diaza-7-silatridecanedioate; chloride], the dissolution in water result is recorded as “readily dissolved in water”.

Take `CCCCCCCCCCCCCCCCCC[N+](C)(C)CCC[Si](OCC(CO)(CO)NCCS(=O)(=O)[O-])(OCC(CO)(CO)NCCS(=O)(=O)O)OCC(CO)(CO)NCCS(=O)(=O)O` [Example 4, Sodium; 7,7-bis(3-hydroxy-2-(hydroxymethyl)-2-((2-sulfoethyl)amino)propoxy)-4,4-bis(hydroxymethyl)-11,11-dimethyl-6-oxa-3,11-diaza-7-silanonacosan-11-ium-1-sulfonate; chloride]: the dissolution in water entry is listed as “dissolved quickly in water, initially hazy but slowly forms clear”.

With `CCCCCCCCCCCCCCCCCC[N+](C)(C)CCC[Si](OCC(CO)(CO)NCCS(=O)(=O)[O-])(OCC(CO)(CO)NCCS(=O)(=O)O)OCC(CO)(CO)NCCS(=O)(=O)O` [Example 1, Disodium; 2-[[1-[[3-[dimethyl(octadecyl)ammonio]propyl-[3-hydroxy-2-(hydroxymethyl)-2-(2-sulfoethylamino)propoxy]-[3-hydroxy-2-(hydroxymethyl)-2-(2-sulfonatoethylamino)propoxy]silyl]oxymethyl]-2-hydroxy-1-(hydroxymethyl)ethyl]amino]ethanesulfonate chloride], the dissolution in water entry is given as “dissolves in water”.

The values are drawn from US12264170B2, “Antimicrobial organosilanes” (TOPIKOS SCIENTIFIC, INC., priority 2019, dated 2025).
